Here are results for eleven molecules from ChEMBL document CHEMBL1201862, “PubChem BioAssay data set” (2004).

Molecules are shown by their SMILES.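 Each compound was tested at five concentrations against cells in 96-well plates for 48 hours. GI50 is the concentration that inhibits growth by half.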 Activity calls are given as the source filed them. Rule as the data show it: active = GI50 up to about 1.1 µM and inactive = higher.

Among the test systems are Malme-3M; SK-MEL-28; OVCAR-4; NCI-H23; NCI-H226; HT-29; SN12C; KM-20L2; CCRF-CEM; SK-MEL-5; HL-60; LOX IMVI; IGROV-1; RXF 393; SF-268; HOP-62; MDA-N; HCT-15; SW-620; DMS-273.
Holding throughout (experiment): growth of human tumour cells (NCI), 48 h

`CCC1(O)C(=O)OCc2c1cc1n(c2=O)Cc2cc3cc(OC)c(OC)cc3nc2-1` (stereo not given): the GI50 with Malme-3M was > 100 µM (inactive); in the experiment on SK-MEL-28 it was > 100 µM (inactive); in the experiment with OVCAR-4 it was > 100 µM (inactive); in the experiment with NCI-H23 it was 15 µM (inactive); in the experiment on NCI-H226, 14.8 µM (inactive); with HT-29, > 100 µM (inactive). The GI50 is 5.5 µM (inactive) with SN12C; > 100 µM (inactive) with KM-20L2; 2.81 µM (inactive) in the experiment on CCRF-CEM; 17.5 µM (inactive) in the experiment with SK-MEL-5; 12 µM (inactive) with HL-60; 7.19 µM (inactive) with LOX IMVI. The GI50 with IGROV-1 was 13.9 µM (inactive); with RXF 393, 16.9 µM (inactive); with SF-268, 11.4 µM (inactive); with HOP-62 it was 2.79 µM (inactive).

For the molecule `COc1cc(/C=C2/C(=O)N(C(=O)c3ccccc3O)N=C2C)cc(OC)c1OC`, the GI50 was 8.17 µM (inactive) in the experiment on Malme-3M; 53.7 µM (inactive) in the experiment on SK-MEL-28; 2.73 µM (inactive) in the experiment on OVCAR-4; 0.653 µM (active) with NCI-H23; 6.21 µM (inactive) with NCI-H226; 34.4 µM (inactive) in the experiment on HT-29. In addition, the GI50 in the experiment on SN12C is 3.1 µM (inactive); with KM-20L2, 45.7 µM (inactive); with CCRF-CEM, 1.77 µM (inactive); in the experiment on SK-MEL-5 it was 2.88 µM (inactive); with MDA-N, 1.02 µM (active); with HCT-15, 3.17 µM. Also, the GI50 was 2.9 µM (inactive) in the experiment on HL-60; 2.09 µM (inactive) in the experiment with LOX IMVI; 6.22 µM (inactive) in the experiment on SW-620; 0.69 µM (active) with IGROV-1; 0.192 µM (active) in the experiment with RXF 393; 8.59 µM (inactive) in the experiment with SF-268. Further, the GI50 in the experiment on HOP-62 is 1.29 µM (inactive).

Regarding `COc1ccc(NC(=O)C(C)Oc2ccc(OCC3CCCCC3)cc2)cc1` (stereo not given), the GI50 was 34.2 µM (inactive) in the experiment on Malme-3M; > 100 µM (inactive) in the experiment with SK-MEL-28; 94 µM (inactive) in the experiment with OVCAR-4; 34.5 µM (inactive) in the experiment on NCI-H23; 42.3 µM (inactive) in the experiment with DMS-273; > 100 µM (inactive) in the experiment on NCI-H226. Further, the GI50 in the experiment with HT-29 was > 100 µM (inactive); in the experiment on SN12C it was > 100 µM (inactive); in the experiment on CCRF-CEM, 71.1 µM (inactive); in the experiment with SK-MEL-5, 34.1 µM (inactive); in the experiment on HCT-15, 63 µM; in the experiment on HL-60, 42.2 µM (inactive). Further, the GI50 with LOX IMVI was 30.7 µM (inactive); in the experiment on IGROV-1, > 100 µM (inactive); in the experiment on RXF 393, > 100 µM (inactive); in the experiment with SF-268, > 100 µM (inactive).

In the case of `COC(=O)C1=C(OC(=O)c2ccccc2)C(C(=O)OC)[C@@]2(O)[C@@H](C(=O)OC)[C@H](C)C[C@@H]1[C@@H]2C(=O)OC` (stereo not given in full), the GI50 in the experiment on Malme-3M is 26.9 µM (inactive); with SK-MEL-28, 27.2 µM (inactive); in the experiment on OVCAR-4 it was 31.6 µM (inactive); with NCI-H23, 30.8 µM (inactive); in the experiment with NCI-H226, 45.5 µM (inactive); in the experiment on HT-29 it was 34.6 µM (inactive). Also, the GI50 is 41.8 µM (inactive) in the experiment with SN12C; 8.89 µM (inactive) with CCRF-CEM; 31.9 µM (inactive) in the experiment with SK-MEL-5; 21.4 µM (inactive) with MDA-N; 58.1 µM in the experiment with HCT-15; 20.1 µM (inactive) in the experiment on HL-60. The GI50 in the experiment on LOX IMVI was 32.1 µM (inactive); with SW-620, 28.6 µM (inactive); in the experiment with IGROV-1 it was 33.8 µM (inactive); in the experiment on RXF 393, 14.4 µM (inactive); in the experiment with SF-268, 47.8 µM (inactive); in the experiment with HOP-62, 33.1 µM (inactive).

With `CCOC(=O)C(C)NC(=O)C(C)NC(=O)C(C)NC(=O)C(C)NC(=O)C(C)NC(=O)OCc1ccccc1` (stereo not given), the GI50 in the experiment with Malme-3M, in the experiment with SK-MEL-28, in the experiment with OVCAR-4, in the experiment with NCI-H23, in the experiment on NCI-H226 and with HT-29 was > 100 µM (inactive) in each case. Besides, the GI50 was > 100 µM (inactive) with SN12C; > 100 µM (inactive) in the experiment on CCRF-CEM; > 100 µM (inactive) in the experiment with SK-MEL-5; > 100 µM (inactive) in the experiment with MDA-N; more than 100 µM in the experiment on HCT-15; > 100 µM (inactive) with HL-60. Besides, the GI50 in the experiment with LOX IMVI, in the experiment on SW-620, in the experiment with IGROV-1, in the experiment on RXF 393, with SF-268 and in the experiment on HOP-62 was > 100 µM (inactive) each time.

In the case of `CCn1c(-c2ccc(/N=N/Nc3ccc(-c4n[nH]c(=S)n4CC)cc3)cc2)n[nH]c1=S`, the GI50 in the experiment with Malme-3M is 2.57 µM (inactive); with SK-MEL-28, 4.18 µM (inactive); in the experiment with OVCAR-4, 1.97 µM (inactive); with NCI-H23, 2.53 µM (inactive); in the experiment on NCI-H226 it was 2.24 µM (inactive); in the experiment on HT-29 it was 3.55 µM (inactive). In addition, the GI50 in the experiment with SN12C was 3.02 µM (inactive); in the experiment on CCRF-CEM, 3.91 µM (inactive); in the experiment on SK-MEL-5 it was 1.49 µM (inactive); with MDA-N, 3.19 µM (inactive); in the experiment with HCT-15, 3.03 µM; in the experiment on HL-60 it was 2.93 µM (inactive). Moreover, the GI50 with LOX IMVI was 3.46 µM (inactive); with SW-620, 4.8 µM (inactive); in the experiment on IGROV-1, 3.09 µM (inactive); in the experiment on RXF 393, 3.43 µM (inactive); in the experiment with SF-268, 3.24 µM (inactive); in the experiment with HOP-62, 2.74 µM (inactive).

As for `CC(=O)N(O)Cc1ccccc1`, the GI50 with Malme-3M, in the experiment with SK-MEL-28, with OVCAR-4, in the experiment on NCI-H23, in the experiment on NCI-H226 and in the experiment with HT-29 was > 100 µM (inactive) in each case. In addition, the GI50 with SN12C was > 100 µM (inactive); in the experiment with KM-20L2, > 100 µM (inactive); in the experiment with CCRF-CEM, > 100 µM (inactive); with SK-MEL-5 it was > 100 µM (inactive); in the experiment on HCT-15, more than 100 µM; with HL-60, > 100 µM (inactive). Moreover, the GI50 in the experiment with LOX IMVI, in the experiment on SW-620, in the experiment on IGROV-1, in the experiment on RXF 393, with SF-268 and in the experiment with HOP-62 was > 100 µM (inactive) throughout.

Take `NC(=S)NN=C1Cc2ccccc2C1`: the GI50 with Malme-3M, with SK-MEL-28, with OVCAR-4, in the experiment with NCI-H23, with NCI-H226 and with HT-29 was > 100 µM (inactive) in each case. Also, the GI50 is > 100 µM (inactive) with SN12C; > 100 µM (inactive) with CCRF-CEM; > 100 µM (inactive) in the experiment with SK-MEL-5; > 100 µM (inactive) in the experiment with MDA-N; more than 100 µM in the experiment with HCT-15; > 100 µM (inactive) in the experiment with HL-60. Further, the GI50 with LOX IMVI, in the experiment with SW-620, in the experiment on IGROV-1, in the experiment with RXF 393, with SF-268 and with HOP-62 was > 100 µM (inactive) in each case.

Regarding `O=C1NC(N2CCCC(CO)C2)=N/C1=C\c1ccccc1` (stereo not given), the GI50 in the experiment on Malme-3M, in the experiment on SK-MEL-28, with OVCAR-4, in the experiment on NCI-H23, in the experiment with NCI-H226 and in the experiment with HT-29 was > 100 µM (inactive) in each case. In addition, the GI50 is > 100 µM (inactive) in the experiment with SN12C; > 100 µM (inactive) in the experiment on CCRF-CEM; > 100 µM (inactive) in the experiment on SK-MEL-5; > 100 µM (inactive) in the experiment on MDA-N; more than 100 µM in the experiment on HCT-15; > 100 µM (inactive) in the experiment on HL-60. The GI50 in the experiment with LOX IMVI, in the experiment on SW-620, with IGROV-1, with RXF 393, with SF-268 and in the experiment on HOP-62 was > 100 µM (inactive) in each case.

On to `CC1(C)C2CCC(=O)C1C(OCc1ccccc1)C2` (stereo not given), for which the GI50 with Malme-3M, in the experiment with SK-MEL-28, in the experiment with OVCAR-4, with NCI-H23, in the experiment with NCI-H226 and with HT-29 was > 100 µM (inactive) throughout. Also, the GI50 with SN12C is > 100 µM (inactive); with CCRF-CEM it was > 100 µM (inactive); in the experiment with SK-MEL-5 it was 17.4 µM (inactive); in the experiment on MDA-N, > 100 µM (inactive); in the experiment on HCT-15 it was more than 100 µM; in the experiment on HL-60 it was 67.3 µM (inactive). The GI50 in the experiment on LOX IMVI, in the experiment with SW-620, in the experiment with IGROV-1, in the experiment on RXF 393, in the experiment with SF-268 and in the experiment on HOP-62 was > 100 µM (inactive) throughout.

For `NC(=S)NS(=O)(=O)c1ccc(F)cc1`, the GI50 in the experiment with Malme-3M, in the experiment on SK-MEL-28, in the experiment on OVCAR-4, in the experiment on NCI-H23, with NCI-H226 and in the experiment on HT-29 was > 100 µM (inactive) throughout. The GI50 was > 100 µM (inactive) in the experiment on SN12C; > 100 µM (inactive) in the experiment with CCRF-CEM; > 100 µM (inactive) in the experiment with SK-MEL-5; > 100 µM (inactive) in the experiment on MDA-N; more than 100 µM in the experiment with HCT-15; > 100 µM (inactive) with HL-60. The GI50 in the experiment on LOX IMVI, in the experiment with SW-620, with IGROV-1, in the experiment on RXF 393, in the experiment with SF-268 and with HOP-62 was > 100 µM (inactive) throughout.
